Experimental data: article PMC4465063 (Mucosal immunology, 2014)

Key:
[1] = test system: K. pneumoniae; experiment: In vivo neutrophil microbial killing assay; design: species or system Klebsiella pneumoniae strain 43816; details: thbs1^−/− mice; 10 µg/mouse i.p. 30 min prior to K. pneumoniae i.p.
[2] = test system: purified cathepsin G; details: purified enzyme, in vitro; cited from earlier work
[3] = test system: purified NE; details: purified enzyme, in vitro; cited from earlier work
[4] = test system: neutrophil elastase (NE); details: cited from earlier work
[5] = test system: cathepsin G; details: cited from earlier work
[6] = test system: plasmin; details: cited from earlier work
[7] = test system: neutrophils; details: in vitro; cited from earlier work

rTSP-1: recombinant TSP-1
bacterial killing function of thbs1^−/− neutrophils [1]: eliminated the enhanced bacterial killing function of thbs1^−/− neutrophils near to the level of WT neutrophils

Ac-DNCQYVYNV-NH2 [DV-9]
inhibition of purified cathepsin G [2]: inhibitory activity to both purified cathepsin G and NE
inhibition of purified NE [3]: inhibitory activity to both purified cathepsin G and NE

Ac-DNCPYVPNA-NH2 [DA-9]
inhibition of purified cathepsin G [2]: without reactive-site sequence similarity or known inhibitory activity
inhibition of purified NE [3]: without reactive-site sequence similarity or known inhibitory activity

TSP-1: matricellular protein that exists as a trimer of identical ~150–180 kDa subunits tethered together by disulfide bonds
reversible inhibition of NE ([4]; in the absence of calcium): enhanced
stoichiometry: mol of NE bound per 1 mol of TSP-1 trimer ([4]; in the presence of calcium): 2.7 ± 0.3 mol
inhibition of purified NE ([4]; purified enzyme, in vitro): binds and competitively inhibits
Kd ([4]; read-out: site binding constant, TSP-1 trimer, NE, in the presence of calcium): 57 ± 13 nM
reversible inhibition of CG ([5]; in the absence of calcium): enhanced
stoichiometry: mol of cathepsin G bound per 1 mol of TSP-1 trimer ([5]; in the presence of calcium): 2.9 ± 0.4 mol
inhibition of purified cathepsin G ([5]; purified enzyme, in vitro): binds and competitively inhibits
Kd ([5]; read-out: site binding constant, TSP-1 trimer, cathepsin G, in the presence of calcium): 7 ± 3.5 nM
inhibition of plasmin ([6]; in vitro, cleavage of fibrinogen): competitive inhibitor
predicted stoichiometry with plasmin ([6]; stoichiometric predictions): one mole of TSP-1 interacting with one mole of plasmin
neutrophil motility and chemotaxis [7]: can bind and induce the motility and chemotaxis of neutrophils in vitro

Ac-DNCPFHYNP-NH2 [DP-9]
inhibition of purified cathepsin G [2]: ability to inhibit activity of purified cathepsin G in vitro
